Results as given in patent publication US4011330A, “Vincaminic acid amides” (Synthelabo, priority 1974, dated 1977).
Read-outs that look alike come from different tables or passages of the source.

Columns and labels:
[1] = Solubility in water (remark in preparation example); type: physicochemical; settings: base
[2] = Acute toxicity (LD50) in mice; type: in vivo; settings: mouse, in vivo, mice, compounds tested in a solution containing ascorbic acid; for LD50 at 168 h: oral, mortality over 7 days
Method: (§1) The compounds were administered orally to mice of the CD1 strain. The mortality was recorded over 7 days and the 50% lethal doses (LD50) were determined graphically.
(§2) The toxicities on intraperitoneal and intravenous administration were determined in accordance with the method of Miller and Taniter (Proc. Soc. Exp. Biol. Med. 1944- vol 57, page 261).

[3] = system: mice of strain CD1; experiment: Anoxia test on mice under low (oxygen) pressure conditions; type: in vivo; settings: Mus musculus, ip, intraperitoneally 10 minutes before the test, 190 mm of mercury (5.25% of oxygen), read-out: MAD (mean active dose, the dose which increases the survival time by 100%)
Method: Anoxia test on mice under low (oxygen) pressure conditions
Mice of strain CD1 are kept in an atmosphere depleted in oxygen, by producing a partial vacuum (190 mm of mercury, corresponding to 5.25% of oxygen).
The survival time of the animals is noted. This time is increased by agents capable of assisting tissue oxygenation and in particular cerebral oxygenation. The compounds studied are administered in several doses intraperitoneally 10 minutes before the test. The percentage increases in the survival time relative to the values obtained with control animals are calculated. The mean active dose (MAD), the dose which increases the survival time by 100%, is determined graphically.

[4] = system: mice of the CD1 strain; experiment: Acute toxicity (LD50) in mice; type: in vivo
Method: as §1, §2

[5] = ip, intraperitoneal, read-out: LD50 intraperitoneal
[6] = intravenous, read-out: LD50 intravenous

SMILES	water solubility [1]	LD50 [2, 5]	LD50 [2, 6]	LD50 at 168 h [2]	ED (100% increase in survival time) [3]	resorption by the digestive tract ([4]; inferred from oral/intravenous LD50 ratio)	ratio of the LD50 for oral administration to the LD50 for intravenous administration ([4]; mice, oral/intravenous)
CCC12CCCN3CCc4c(n(c5ccccc45)C(C(=O)NC4CCCCC4)C1)C32 (stereo not shown) [S.L.D. 135, N-cyclohexyldesoxyvincaminamide]	water-insoluble						
CCC12CCCN3CCc4c(n(c5ccccc45)C(C(N)=O)C1)C32 (stereo not shown) [SLC 156, Desoxyvincaminamide]		210 mg/kg	109 mg/kg	607 mg/kg	1.8 mg/kg		
CCC12CCCN3CCc4c(n(c5ccccc45)C(C(=O)NC4CC4)C1)C32 (stereo not shown) [SLD 105, N-cyclopropyldesoxyvincaminamide]	water-insoluble	165 mg/kg	76 mg/kg	290 mg/kg	1 mg/kg	good	low
CCC12C=C(C(=O)NC3CC3)n3c4c(c5ccccc53)CCN(CCC1)C42 (stereo not shown) [SLD 121, N-monocyclopropylapovincaminamide]					2.5 mg/kg		
CCC12CCCN3CCc4c(n(c5ccccc45)C(C(=O)NC4CCC4)C1)C32 (stereo not shown) [SLD 142, N-cyclobutyldesoxyvincaminamide]					0.5 mg/kg		
CC[C@]12CCCN3CCc4c(n(c5ccccc45)[C@@](O)(C(=O)OC)C1)[C@@H]32 [Vincamine, reference compound]			75 mg/kg		8 mg/kg		
